Reference: the supplement of paper PMC10307832

Tests used:
Assay in all cases: relative viability (nuclei count vs DMSO), 5 days (fraction); higher = more cells survive
CAP-232 + Trametinib = compound: C[C@H]([C@@H](C(=O)N)NC(=O)[C@@H]1CSSC[C@@H](C(=O)N[C@H](C(=O)N[C@@H](C(=O)N[C@H](C(=O)N1)CCCCN)CC2=CNC3=CC=CC=C32)CC4=CC=C(C=C4)O)NC(=O)[C@@H](CC5=CC=CC=C5)N)O [CAP-232] + CC(=O)Nc1cccc(-n2c(=O)n(C3CC3)c(=O)c3c(Nc4ccc(I)cc4F)n(C)c(=O)c(C)c32)c1 [Trametinib] (partner 0.02 µM)
In short: (§1)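 Five library-drug doses in √10 steps were combined with a fixed anchor-drug dose, or a single drug was given alone, by pin tool to lung cancer cell lines in 1536-well plates the day after seeding. Nuclei were stained and counted after 5 days. Relative viability is the nuclei count in treated wells over that in vehicle wells, taken as the median of duplicate plates.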

CAP-232 + Navitoclax = compound: C[C@H]([C@@H](C(=O)N)NC(=O)[C@@H]1CSSC[C@@H](C(=O)N[C@H](C(=O)N[C@@H](C(=O)N[C@H](C(=O)N1)CCCCN)CC2=CNC3=CC=CC=C32)CC4=CC=C(C=C4)O)NC(=O)[C@@H](CC5=CC=CC=C5)N)O [CAP-232] + CC1(C)CCC(c2ccc(Cl)cc2)=C(CN2CCN(c3ccc(C(=O)NS(=O)(=O)c4ccc(N[C@H](CCN5CCOCC5)CSc5ccccc5)c(S(=O)(=O)C(F)(F)F)c4)cc3)CC2)C1 [Navitoclax] (partner 0.5 µM)
In short: as §1

CAP-232 + Luminespib = compound: C[C@H]([C@@H](C(=O)N)NC(=O)[C@@H]1CSSC[C@@H](C(=O)N[C@H](C(=O)N[C@@H](C(=O)N[C@H](C(=O)N1)CCCCN)CC2=CNC3=CC=CC=C32)CC4=CC=C(C=C4)O)NC(=O)[C@@H](CC5=CC=CC=C5)N)O [CAP-232] + CCNC(=O)c1noc(-c2cc(C(C)C)c(O)cc2O)c1-c1ccc(CN2CCOCC2)cc1 [Luminespib] (partner 0.01 µM)
In short: as §1

CAP-232 + AZD7762 = compound: C[C@H]([C@@H](C(=O)N)NC(=O)[C@@H]1CSSC[C@@H](C(=O)N[C@H](C(=O)N[C@@H](C(=O)N[C@H](C(=O)N1)CCCCN)CC2=CNC3=CC=CC=C32)CC4=CC=C(C=C4)O)NC(=O)[C@@H](CC5=CC=CC=C5)N)O [CAP-232] + NC(=O)Nc1cc(-c2cccc(F)c2)sc1C(=O)N[C@H]1CCCNC1 [AZD7762] (partner 0.2 µM)
In short: as §1

CAP-232 + Decitabine = compound: C[C@H]([C@@H](C(=O)N)NC(=O)[C@@H]1CSSC[C@@H](C(=O)N[C@H](C(=O)N[C@@H](C(=O)N[C@H](C(=O)N1)CCCCN)CC2=CNC3=CC=CC=C32)CC4=CC=C(C=C4)O)NC(=O)[C@@H](CC5=CC=CC=C5)N)O [CAP-232] + Nc1ncn([C@H]2C[C@H](O)[C@@H](CO)O2)c(=O)n1 [Decitabine] (partner 2 µM)
In short: as §1

Row | Cell Line | relative viability (CAP-232 + Trametinib; first compound 0.4 µM) | relative viability (CAP-232 + Trametinib; first compound 1.265 µM) | relative viability (CAP-232 + Trametinib; first compound 4 µM) | relative viability (CAP-232 + Trametinib; first compound 12.65 µM) | relative viability (CAP-232 + Navitoclax; first compound 0.4 µM) | relative viability (CAP-232 + Navitoclax; first compound 1.265 µM) | relative viability (CAP-232 + Navitoclax; first compound 4 µM) | relative viability (CAP-232 + Navitoclax; first compound 12.65 µM) | relative viability (CAP-232 + Luminespib; first compound 0.4 µM) | relative viability (CAP-232 + Luminespib; first compound 1.265 µM) | relative viability (CAP-232 + Luminespib; first compound 4 µM) | relative viability (CAP-232 + Luminespib; first compound 12.65 µM) | relative viability (CAP-232 + AZD7762; first compound 0.4 µM) | relative viability (CAP-232 + AZD7762; first compound 1.265 µM) | relative viability (CAP-232 + AZD7762; first compound 4 µM) | relative viability (CAP-232 + AZD7762; first compound 12.65 µM) | relative viability (CAP-232 + Decitabine; first compound 0.4 µM) | relative viability (CAP-232 + Decitabine; first compound 1.265 µM) | relative viability (CAP-232 + Decitabine; first compound 4 µM) | relative viability (CAP-232 + Decitabine; first compound 12.65 µM)
1 | 201T | 0.707 | 0.698 | 0.729 | 0.677 | 1.23 | 1.19 | 1.12 | 1.22 | 1.08 | 1.04 | 0.967 | 1.07 | 0.636 | 0.716 | 0.643 | 0.643 | 0.842 | 0.844 | 0.817 | 0.849
2 | A549 |  |  |  |  | 1.33 | 1.19 | 1.25 | 0.482 |  |  |  |  |  |  |  |  | 0.267 | 0.212 | 0.33 | 0.239
3 | A-427 | 0.615 | 0.716 | 0.795 | 0.684 | 0.926 | 0.996 | 0.941 | 0.965 | 0.697 | 0.968 | 0.87 | 1.03 | 0.72 | 0.754 | 0.811 | 0.746 | 0.578 | 0.556 | 0.599 | 0.56
4 | ABC-1 |  |  |  |  |  |  |  |  | 0.554 | 0.587 | 0.686 | 0.377 | 0.883 | 0.541 | 0.803 | 0.692 | 1.05 |  | 0.984 | 0.887
5 | BEN | 1.15 | 0.987 | 0.997 | 0.914 | 0.0584 | 0.0704 | 0.0685 | 0.0473 | 0.501 | 0.234 | 0.184 | 0.371 | 0.789 | 0.714 | 0.7 | 0.553 | 0.792 | 0.686 | 0.742 | 0.795
6 | CAL-12T | 0.233 | 0.303 | 0.394 | 0.162 | 1.05 | 1.21 | 1.3 | 0.94 | 0.132 | 0.184 | 0.242 | 0.155 | 0.753 | 0.596 | 0.664 | 0.706 |  |  |  | 
7 | COR-L23 | 0.455 | 0.597 | 0.604 | 0.281 | 1.02 | 1.1 | 0.977 | 0.572 | 0.475 | 0.776 | 0.81 | 0.506 |  |  |  |  | 0.451 | 0.407 | 0.471 | 0.337
8 | COR-L 105 | 0.371 | 0.414 | 0.395 | 0.377 | 0.748 | 0.69 | 0.796 | 0.498 | 0.768 | 0.652 | 0.737 | 0.494 |  |  |  |  | 0.629 | 0.647 | 0.684 | 0.477
9 | ChaGo-K-1 | 0.867 | 0.892 | 1.01 | 0.93 | 1.43 | 0.818 | 0.973 | 0.734 | 0.574 | 0.638 | 0.495 | 0.545 | 0.869 | 0.868 | 0.916 | 0.817 | 0.497 | 0.542 | 0.506 | 0.547
10 | EKVX | 0.583 | 0.342 | 0.268 | 0.331 | 1.07 | 1.07 | 0.951 | 0.714 | 0.876 | 0.719 | 0.871 | 0.645 | 0.899 | 0.712 | 0.699 | 0.471 | 0.993 | 0.367 | 0.256 | 0.323
11 | EMC-BAC-2 | 0.757 | 0.864 | 0.859 | 0.415 | 1.23 | 1.25 | 1.38 | 0.935 | 1.32 | 1.19 | 1.21 | 1.05 | 1.28 | 1.05 | 1.12 | 0.828 | 0.969 | 0.963 | 0.959 | 0.972
12 | EPLC-272H | 0.261 | 0.258 | 0.281 | 0.28 | 1.37 | 1.29 | 1.17 | 0.964 | 0.256 | 0.198 | 0.219 | 0.157 | 0.287 | 0.165 | 0.228 | 0.209 | 0.348 | 0.334 | 0.344 | 0.355
13 | H3255 | 0.608 |  | 0.543 | 0.436 | 0.629 | 0.426 | 0.556 | 0.242 | 0.805 | 0.825 | 1.05 | 1.01 | 0.979 | 0.869 | 0.898 | 0.756 | 0.744 |  | 0.608 | 0.676
14 | HCC-78 | 0.688 | 0.824 | 0.918 | 0.727 | 0.789 | 0.658 | 0.697 | 0.732 |  |  |  |  | 0.747 | 0.612 | 0.591 | 0.713 | 0.755 | 0.764 | 0.687 | 0.636
15 | HCC-366 | 0.365 | 0.419 | 0.327 | 0.349 | 1.06 | 1.17 | 1.2 | 1.09 |  |  |  |  | 0.399 | 0.328 | 0.308 | 0.374 | 0.407 | 0.301 | 0.317 | 0.384
16 | IA-LM |  |  |  |  | 0.78 | 0.871 | 0.805 | 0.372 |  |  |  |  |  |  |  |  |  |  |  | 
